We go through three molecules from US20120244102A1, “AGENT FOR PREVENTING OR TREATING CROHN'S DISEASE, COMPRISING ORGANIC ACID POLYMER” (SANWA KAGAKU KENKYUSHO CO., LTD., priority 2010, published 2012).

The test system of the assay is mouse TNBS-induced Crohn's disease model. In words: mouse TNBS-induced Crohn's disease model (pathological score, intestinal lesion score). Format: in vivo. Conditions: for intestinal lesion score: scale 0-10, control group 8.1. As for the experimental part: Seven-week-old male BALB/c Cr Slc mice were purchased from Japan SLC, Inc. After 5 days of breeding for taming, the mice were divided into 5 groups so as to eliminate the difference between body weights, and subjected to an experiment.
The hair on 2 square-cm of the abdomen of the mouse was shaved, and 1% TNBS was applied to the skin. At 7 days after the application of TNBS, the mouse was fixed under anesthesia by halothane inhalation, and 100 μL of 2.0% TNBS was injected from the rectum to initiate intestinal lesions in Crohn's disease.
In the propagermanium-administered group, 0.015% of the propagermanium was mixed with a standard feedstuff for mice CRF-1 (manufactured by Oriental Yeast Co., Ltd.) and administered by ad libitum feeding from immediately after the injection of TNBS to 3 days after the initiation. The average dose during the period of the administration of the propagermanium was calculated to be about 7.5 mg/kg/day as a dose of the propagermanium per day, from the body weight and food consumption.
In the prednisolone-administered group as a positive control, prednisolone was administered once a day as 10 mL/kg of 0.5% CMC suspension using an oral canula for mice from immediately after the injection of TNBS to 3 days after the initiation. The dose was set to be 1 mg/kg/day that is the maximum amount of a clinical general dose (30 to 40 mg/day/person).
In the salazosulfapyridine-administered group as a positive control, salazosulfapyridine was administered twice a day for 3 days as 10 mL/kg of 0.5% CMC suspension using an oral canula for mice from immediately after the injection of TNBS to 3 days after the initiation. Two dose groups: a low dose group (133 mg/kg/day) that is the maximum amount in view of a clinical general dose and a high dose group (400 mg/kg/day) that is effective in rat TNBS models, were set.
At 1, 2 and 3 days after the TNBS initiation, the pathological score (the total of the scores of weight-loss, diarrhea/loose stool and occult blood/hemorrhage) was evaluated according to the following criteria.
(A) Weight-loss score (when the body weight before the TNBS initiation is considered to be 100%) • 0: No decrease • 1: Decreased by within 5% • 2: Decreased by 5-10% • 3: Decreased by 10-20% • 4: Decreased by more than 20%
(B) Diarrhea/loose stool score • 0: Normal. A solid form is maintained. • 2: Semi-solid loose stool. Wet, and readily collapses when being touched. • 4: Diarrhea, with flowability.
(C) Occult blood/hemorrhage score • 0: Normal. No blood is incorporated in stool. • 2: Occult blood. Blood is incorporated in stool. Perianal is slightly dirty. • 4: Bloody stool. Blood is incorporated in stool. Perianal is dirty with blood.
At 3 days after the TNBS initiation, Evans Blue was administered intravenously. At 30 minutes after the administration, the mouse was sacrificed by cervical dislocation, from the colon to the anus were excised and the inner cavity was washed with physiological saline, the lumen was opened, and the degree of the lesions was scored. The intestinal lesion score was evaluated by observing the colon by using a stereomicroscope according to the following criteria. • 0: No damage. • 1: Hyperemia • 2: Hyperemia and thickening of gut walls. No ulcer. • 3: Ulcer is present, but is not thickened. • 4: Plural lesion sites are present. • 5: Widespread lesion sites (1 cm or more in total) • 6: Widespread lesion sites (1.5 cm or more in total) • 7: Widespread lesion sites (2 cm or more in total) • 8: Widespread lesion sites (2.5 cm or more in total) • 9: Widespread lesion sites (3 cm or more in total) • 10: Widespread lesion sites (3.5 cm or more in total)

“3-oxygermylpropionic acid polymer [propagermanium]”: the “pathological score (total of weight-loss, diarrhea/loose stool and occult blood/hemorrhage scores)” value runs as follows: (7.5 mg/kg propagermanium mixed in feed, 2 days after the TNBS initiation) “significant effect of improving the pathological score was confirmed”; (7.5 mg/kg propagermanium mixed in feed, 3 days after the TNBS initiation) “significant effect of improving the pathological score was confirmed”.
For `C[C@]12C=CC(=O)C=C1CC[C@@H]1[C@@H]2[C@@H](O)C[C@@]2(C)[C@H]1CC[C@]2(O)C(=O)CO` [prednisolone], the “pathological score (total of weight-loss, diarrhea/loose stool and occult blood/hemorrhage scores)” value (1 mg/kg prednisolone oral, 2 days after the initiation) is on record as “effect was not observed”; the “pathological score (total of weight-loss, diarrhea/loose stool and occult blood/hemorrhage scores)” value (1 mg/kg prednisolone oral, 3 days after the initiation) is reported as “effect was observed”. Also, the intestinal lesion score (prednisolone 1 mg/kg oral, 3 days after the TNBS initiation) came out at 5.2.
With `O=C(O)c1cc(/N=N/c2ccc(S(=O)(=O)Nc3ccccn3)cc2)ccc1O` [salazosulfapyridine], the “pathological score (total of weight-loss, diarrhea/loose stool and occult blood/hemorrhage scores)” value (133 mg/kg salazosulfapyridine oral (low dose group)) is on record as “significant improving effect was not observed”; the “pathological score (total of weight-loss, diarrhea/loose stool and occult blood/hemorrhage scores)” value (400 mg/kg salazosulfapyridine oral (high dose group), 2 days after the initiation) is given as “improving effect was found”; the “pathological score (total of weight-loss, diarrhea/loose stool and occult blood/hemorrhage scores)” value (400 mg/kg salazosulfapyridine oral (high dose group), 3 days after the initiation) is given as “improving effect was found”. Further, the intestinal lesion score (salazosulfapyridine 133 mg/kg oral, 3 days after the TNBS initiation) is listed as 6.1 and the intestinal lesion score (salazosulfapyridine 400 mg/kg oral, 3 days after the TNBS initiation) was determined as 6.8.
